According to US20240241099A1, “METHOD FOR IDENTIFYING PI3 KINASE-ALPHA INHIBITORS” (UNIVERSITÄT BASEL, priority 2021, published 2024):

Tests used:
[1] = tested on: AktSer473 phosphorylation in SKOV3 ovarian cancer cells; experiment: Cellular washout study in SKOV3 cells, P-AktSer473 by immunoblot; format: cell-based; conditions: 2.5 μM for 2 hours, then washout
Procedure: (§1) The experiments were performed in triplicate; CNX-1351 was used as positive control (irreversible inhibitor) and PQR514 as negative control (reversible inhibitor). (b) Metabolic stability of 19, 22 and CNX-1351 using rat liver microsomes. The time-dependent loss of test items (1 μM) with liver microsomes (0.5 mg microsomal protein/mL) and the percentages of test item remaining after 60 minutes of incubation were measured, (n=2).
The experiments were performed in triplicate; CNX-1351 was used as positive control (irreversible inhibitor) and PQR514 as negative control (reversible inhibitor).
(§2) The library of acrylamide-containing compounds was evaluated for PI3K signaling in SKOV3 ovarian cancer cells. […] Inhibition of AktSer473 phosphorylation measured by immunoblot analysis was used as an indicator of inhibition of PI3K signaling. Cells were incubated with the drugs (2.5 μM each) for 2 hours.
as §2, with “enone-containing” for “acrylamide-containing”

[2] = Metabolic stability in rat liver microsomes; format: in vitro ADME; conditions: rat liver microsomes 0.5 mg protein/mL, 1 μM, 60 minutes
Procedure: as §1
The metabolic stability of 19, 22 and CNX-1351 was evaluated in vitro in rat liver microsomes.

PI3Kα = PI3Kα (Homo sapiens, UniProt P42336); experiment: TR-FRET tracer displacement / time-dependent inhibition (IC50 shift) assay; format: binding
Sequence of PI3Kα (P42336 whole entry): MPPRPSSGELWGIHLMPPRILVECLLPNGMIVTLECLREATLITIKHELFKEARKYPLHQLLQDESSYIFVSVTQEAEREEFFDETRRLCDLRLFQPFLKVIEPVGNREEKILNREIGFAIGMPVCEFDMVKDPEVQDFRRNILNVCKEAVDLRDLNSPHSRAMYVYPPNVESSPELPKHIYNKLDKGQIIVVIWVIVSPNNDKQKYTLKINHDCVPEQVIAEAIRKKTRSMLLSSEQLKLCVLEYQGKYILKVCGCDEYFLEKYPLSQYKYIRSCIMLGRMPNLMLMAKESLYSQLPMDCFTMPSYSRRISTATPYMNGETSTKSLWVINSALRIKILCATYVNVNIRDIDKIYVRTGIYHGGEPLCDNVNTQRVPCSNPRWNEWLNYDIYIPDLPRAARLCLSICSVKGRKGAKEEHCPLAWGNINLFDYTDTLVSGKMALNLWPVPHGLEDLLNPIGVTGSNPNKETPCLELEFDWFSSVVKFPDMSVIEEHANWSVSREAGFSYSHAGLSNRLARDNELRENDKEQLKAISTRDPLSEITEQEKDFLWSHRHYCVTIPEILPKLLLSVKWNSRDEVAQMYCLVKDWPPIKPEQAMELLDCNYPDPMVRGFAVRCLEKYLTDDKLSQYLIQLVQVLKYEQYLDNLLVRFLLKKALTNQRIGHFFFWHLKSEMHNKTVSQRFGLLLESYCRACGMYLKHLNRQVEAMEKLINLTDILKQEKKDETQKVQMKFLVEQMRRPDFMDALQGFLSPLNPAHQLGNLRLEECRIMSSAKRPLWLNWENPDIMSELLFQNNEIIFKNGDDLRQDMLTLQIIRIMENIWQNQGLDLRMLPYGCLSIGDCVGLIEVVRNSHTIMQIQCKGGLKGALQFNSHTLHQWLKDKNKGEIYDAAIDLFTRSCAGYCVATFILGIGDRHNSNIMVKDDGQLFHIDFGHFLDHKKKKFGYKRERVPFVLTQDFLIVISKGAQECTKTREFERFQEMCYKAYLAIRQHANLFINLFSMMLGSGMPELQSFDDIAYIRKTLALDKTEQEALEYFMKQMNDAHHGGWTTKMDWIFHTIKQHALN
Sequence of PI3Kα (P27986 whole entry partner): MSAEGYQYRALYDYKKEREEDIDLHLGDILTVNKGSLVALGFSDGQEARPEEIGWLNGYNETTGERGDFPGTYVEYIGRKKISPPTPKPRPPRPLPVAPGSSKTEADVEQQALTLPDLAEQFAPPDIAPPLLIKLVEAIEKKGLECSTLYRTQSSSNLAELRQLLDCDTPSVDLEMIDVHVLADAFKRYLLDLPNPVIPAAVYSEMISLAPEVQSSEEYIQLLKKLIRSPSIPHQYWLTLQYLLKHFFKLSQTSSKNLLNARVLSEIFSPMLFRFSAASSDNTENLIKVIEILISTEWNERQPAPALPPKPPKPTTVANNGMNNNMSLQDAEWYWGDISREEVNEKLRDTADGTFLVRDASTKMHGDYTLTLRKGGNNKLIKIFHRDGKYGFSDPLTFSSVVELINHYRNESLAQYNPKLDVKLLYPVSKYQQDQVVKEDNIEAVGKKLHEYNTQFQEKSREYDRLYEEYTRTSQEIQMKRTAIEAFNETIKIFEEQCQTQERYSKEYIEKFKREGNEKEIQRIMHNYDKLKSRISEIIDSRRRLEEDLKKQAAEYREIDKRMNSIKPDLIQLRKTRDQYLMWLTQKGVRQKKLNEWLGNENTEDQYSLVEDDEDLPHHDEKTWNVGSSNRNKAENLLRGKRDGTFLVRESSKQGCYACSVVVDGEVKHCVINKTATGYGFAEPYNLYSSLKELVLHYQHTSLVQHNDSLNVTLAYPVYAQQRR
Procedure: The B-methyl substituted enone (2) and its corresponding moderately electrophilic derivative, β,β-dimethyl enone (3) were selected to explore the target space. A collection of compounds with pairwise matched linkers but either fast (2, 10-12) or moderate (3, 13-15) reacting Michael acceptors were synthesized (FIG. 3A). A time-dependent inhibition (IC50 shift) assay with five pre-incubation times was designed to identify covalent, time-dependent inhibitors. For compounds bearing a fast-reacting warhead (2, 10-12) a significant IC50 shift was observed also for compounds having their Michael acceptor at >4 Å from the cysteine thiol (FIG. 3E). […] The increased efficiency in covalent bond formation for 12 is due to the irreversible binding rather than an improvement in reversible affinity (see Ki values in FIG. 3D). […]
The library was tested for cellular potency on inhibition of PKB phorphorilation, considered as an indicator of inhibition of PI3K signaling. Time-resolved fluorescence resonance (TR-FRET) tracer displacement assay was used to determine the rate constant for irreversible inactivation (kinact) and the second order rate constant typically used to characterize the covalent binding of irreversible inhibitors to the target protein (kinact/Ki). […]

[3] = tested on: PKB phosphorylation on Ser473 in SKOV3 cells; experiment: In-cell Western assay of PKB Ser473 phosphorylation in SKOV3 cells; format: cell-based; conditions: n = 3, read-out: pPKB S473 IC50

Row | Structure (SMILES) | P-AktSer473 signaling after drug washout [1] | metabolic stability [2] | kinact/Ki, [nM^−1s^−1] (PI3Kα; TR-FRET efficiency of covalent bond formation) [nM⁻¹ s⁻¹] | kinact, [s^−1] (PI3Kα; TR-FRET rate constant for irreversible inactivation) [s⁻¹] | IC50 [3] [nM]
1 | CC(C)=CC(=O)CCC(=O)N1CCN(Cc2cc3nc(-c4cccc5[nH]ncc45)nc(N4CCOCC4)c3s2)CC1 [CNX-1351] | prolonged inhibition | rapidly metabolized | 1.73e-05 | 0.000657 | 290
2 | Nc1ncc(-c2nc(N3CCOCC3)nc(N3CCOCC3)n2)c(C(F)F)n1 [PQR514] | immediately recovered | – | – | – | –
